Values after ≈ are worked out from the molar mass of the structure shown. Active and inactive are the calls of the source. The calls are words filed in the database; no cut-off is given here.
What was measured:
Influenza A virus [1] = assay: Antiviral activity against influenza A virus H5N1(A/Duck/Guangdong/212/2004) infected in MDCK cells assessed as inhibition of cytopathic effect incubated for 48 hrs by MTT assay; assay type: functional, organism-based
[2] = Aqueous solubility of compound; assay type: physicochemical
Influenza A virus [3] = assay: Antiviral activity against influenza A virus A/WSN/33 (H1N1) infected in MDCK cells assessed as reduction in nucleoprotein expression at 20 uM cells pre-infected with virus for 1 hr followed by compound addition; assay type: functional, organism-based
[4] = Half life in BALB/c nude mouse at 2 mg/kg, iv measured after 24 hrs by LC-MS/MS analysis; assay type: ADME, organism-based; conditions: in vivo
[5] = Metabolic stability in mouse liver S9 fraction assessed as intrinsic clearance at 10 uM incubated for 5 mins in presence of NADPH and UDPGA by LC-MS/MS analysis; assay type: ADME, subcellular; conditions: read-out: CLH
Influenza A virus [6] = assay: Antiviral activity against influenza A virus A/WSN/33 (H1N1) infected in MDCK cells assessed as increase in inhibition of luciferase activity pre-infected with virus for 1 hr followed by compound addition and measured after 24 hrs post infection; assay type: functional, organism-based; conditions: dose <= 6.0 nM
Influenza A virus [7] = assay: Antiviral activity against Influenza A A/WSN/33 (H1N1) infected in BALB/c mouse at 30 mg/kg/day, ip administered twice daily for 5 days starting from 1 hrs post infection and measured daily for 14 days; assay type: functional, organism-based; conditions: time 5.0 day
[8] = Tmax in BALB/c nude mouse at 10 mg/kg, po measured after 24 hrs by LC-MS/MS analysis; assay type: ADME, organism-based; conditions: in vivo
[9] = AUC (0 to t) in BALB/c nude mouse at 15 mg/kg, ip measured after 24 hrs by LC-MS/MS analysis; assay type: ADME, organism-based; set-up: time 24 hrs, dose 15 mg/kg, route ip; conditions: in vivo
[10] = Bioavailability in BALB/c nude mouse at 15 mg/kg, ip measured after 24 hrs by LC-MS/MS analysis; assay type: ADME, organism-based; conditions: in vivo
Influenza A virus [11] = assay: Antiviral activity against influenza A virus A/WSN/33 (H1N1) infected in MDCK cells assessed as inhibition of cRNA synthesis pre-infected with virus for 1 hr followed by compound addition and measured after 24 hrs post infection by RT-qPCR analysis; assay type: functional, organism-based; conditions: dose 2.5-10 µM
Influenza A virus [12] = assay: Antiviral activity against influenza A virus A/WSN/33 (H1N1) infected in MDCK cells assessed as effect on nucleoprotein viral protein expression at 20 uM pretreated with cells for 1 hr followed by viral infection; assay type: functional, organism-based
[13] = Metabolic stability in mouse liver microsomes assessed as intrinsic clearance at 10 uM incubated for 5 mins in presence of NADPH by LC-MS/MS analysis; assay type: ADME, Microsome; conditions: read-out: CLH
[14] = Distribution coefficient, logD of compound at pH 7.4; assay type: physicochemical; conditions: octanol/water
[15] = AUC (0 to t) in BALB/c nude mouse at 2 mg/kg, iv measured after 24 hrs by LC-MS/MS analysis; assay type: ADME, organism-based; set-up: time 24 hrs, dose 2 mg/kg, route iv; conditions: in vivo
Influenza A virus [16] = assay: Antiviral activity against influenza A virus A/WSN/33 (H1N1) infected in MDCK cells assessed as reduction in PB2 mRNA level at 20 uM measured upto 10 hrs after viral infection by RT-PCR analysis; assay type: functional, organism-based
[17] = Half life in BALB/c nude mouse at 15 mg/kg, ip measured after 24 hrs by LC-MS/MS analysis; assay type: ADME, organism-based; conditions: in vivo
[18] = Cmax in BALB/c nude mouse at 15 mg/kg, ip measured after 24 hrs by LC-MS/MS analysis; assay type: ADME, organism-based; set-up: time 24 hrs, dose 15 mg/kg, route ip; conditions: in vivo
Erythrocyte = assay: Inhibition of hemagglutination in chicken RBC cells infected with Influenza A virus A/WSN/33 (H1N1) assessed as reduction in virus-induced agglutination of erythrocytes at 0.31 to 81 uM pretreated with H5 antigen for 30 mins followed by addition of chicken erythrocytes measured after 1 hr; assay type: functional, cell-based; conditions: Gallus gallus, dose 0.31-81 µM, time 1.5 hrs
[19] = AUC (0 to t) in BALB/c nude mouse at 10 mg/kg, po measured after 24 hrs by LC-MS/MS analysis; assay type: ADME, organism-based; set-up: time 24 hrs, dose 10 mg/kg, route po; conditions: in vivo
Influenza A virus [20] = assay: Antiviral activity against influenza A virus A/WSN/33 (H1N1) infected in MDCK cells assessed as reduction in PB2 mRNA level at 20 uM measured after 2 to 5 hrs after viral infection by RT-PCR analysis; assay type: functional, organism-based; conditions: time 2-5 hrs
Influenza A virus [21] = assay: Antiviral activity against influenza A virus A/WSN/33 (H1N1) infected in MDCK cells assessed as reduction of ratio of pPOLI-Fluc to Renilla luciferase activity at 2.5 to 10 uM pre-infected with virus for 1 hr followed by compound addition and measured after 24 hrs post infection; assay type: functional, organism-based; conditions: dose 2.5-10 µM
[22] = Solubility of the compound in FeSSIF; assay type: physicochemical
[23] = Cmax in BALB/c nude mouse at 2 mg/kg, iv measured after 24 hrs by LC-MS/MS analysis; assay type: ADME, organism-based; set-up: time 24 hrs, dose 2 mg/kg, route iv; conditions: in vivo
Influenza A virus [24] = assay: Antiviral activity against influenza A virus A/WSN/33 (H1N1) infected in MDCK cells assessed as effect on matrix protein 2 expression at 20 uM pretreated with cells for 1 hr followed by viral infection; assay type: functional, organism-based
in vitro = conditions: dog, MDCK cells
[25] = Cytotoxicity against MDCK cells incubated for 48 hrs by MTT assay; assay type: toxicity, cell-based, Canis lupus familiaris; conditions: dog
[26] = Cmax in BALB/c nude mouse at 10 mg/kg, po measured after 24 hrs by LC-MS/MS analysis; assay type: ADME, organism-based; set-up: dose 10 mg/kg, time 24 hrs, route po; conditions: in vivo
Influenza A virus [27] = assay: Antiviral activity against influenza A virus Flu (B/Lee/1940) infected in MDCK cells assessed as inhibition of cytopathic effect incubated for 48 hrs by MTT assay; assay type: functional, organism-based
Influenza A virus [28] = assay: Antiviral activity against Influenza A A/WSN/33 (H1N1) infected in BALB/c mouse assessed as survival ratio at 15 mg/kg/day, ip administered twice daily for 5 days starting from 1 hrs post infection and measured daily for 14 days relative to control; assay type: functional; conditions: time 14 day
Influenza A virus [29] = assay: Antiviral activity against influenza A virus A/WSN/33 (H1N1) infected in MDCK cells assessed as effect on matrix protein 2 expression at 20 uM pre-infected with virus for 30 mins followed by 1 hr incubation with cells; assay type: functional, organism-based; conditions: time 1.5 hrs
Influenza A virus [30] = assay: Antiviral activity against influenza A virus A/WSN/33 (H1N1) infected in MDCK cells assessed as effect on nucleoprotein expression at 20 uM pre-infected with virus for 30 mins followed by 1 hr incubation with cells; assay type: functional, organism-based; conditions: time 1.5 hrs
Influenza A virus [31] = assay: Antiviral activity against influenza A virus A/WSN/33 (H1N1) infected in MDCK cells assessed as reduction in matrix protein 2 expression at 20 uM cells pre-infected with virus for 1 hr followed by compound addition; assay type: functional, organism-based
[32] = Metabolic stability in mouse plasma assessed as compound remaining measured after 120 mins by LC-MS/MS analysis; assay type: ADME, cell-free; conditions: read-out: Stability
Influenza A virus [33] = assay: Antiviral activity against influenza A virus A/WSN/33 (H1N1) infected in MDCK cells assessed as reduction in PB2 mRNA level at 20 uM measured after 5 to 8 hrs after viral infection by RT-PCR analysis; assay type: functional, organism-based; conditions: time 5-8 hrs
[34] = Metabolic stability in mouse plasma assessed as compound remaining measured after 60 mins by LC-MS/MS analysis; assay type: ADME, cell-free; conditions: read-out: Stability
[35] = Metabolic stability in mouse liver S9 fraction assessed as half life at 10 uM incubated for 5 mins in presence of NADPH and UDPGA by LC-MS/MS analysis; assay type: ADME, subcellular
[36] = Metabolic stability in mouse plasma assessed as compound remaining measured after 30 mins by LC-MS/MS analysis; assay type: ADME, cell-free; conditions: read-out: Stability
[37] = Metabolic stability in mouse liver microsomes assessed as half life at 10 uM incubated for 5 mins in presence of NADPH by LC-MS/MS analysis; assay type: ADME, Microsome
[38] = Metabolic stability in mouse plasma assessed as compound remaining measured after 90 mins by LC-MS/MS analysis; assay type: ADME, cell-free; conditions: read-out: Stability
[39] = Half life in BALB/c nude mouse at 10 mg/kg, po measured after 24 hrs by LC-MS/MS analysis; assay type: ADME, organism-based; conditions: in vivo
Influenza A virus [40] = assay: Antiviral activity against Influenza A A/WSN/33 (H1N1) infected in BALB/c mouse assessed as protection against body weight loss administered ip twice daily for 5 days starting from 1 hrs post infection and measured daily for 14 days; assay type: functional, organism-based; conditions: dose 7.5-30 mg/kg/day, time 5.0 day
[41] = Tmax in BALB/c nude mouse at 15 mg/kg, ip measured after 24 hrs by LC-MS/MS analysis; assay type: ADME, organism-based; conditions: in vivo
[42] = Clearance in BALB/c nude mouse at 2 mg/kg, iv measured after 24 hrs by LC-MS/MS analysis; assay type: ADME, organism-based; conditions: in vivo
[43] = Oral bioavailability in BALB/c nude mouse at 10 mg/kg measured after 24 hrs by LC-MS/MS analysis; assay type: ADME, organism-based; conditions: in vivo
[44] = Solubility of the compound in FaSSIF; assay type: physicochemical
Influenza A virus [45] = assay: Antiviral activity against influenza A virus H3N2(JX/312) infected in MDCK cells assessed as inhibition of cytopathic effect incubated for 48 hrs by MTT assay; assay type: functional, organism-based

## CCCOC(=O)[C@@H]1Cc2cc(O)c(O)cc2[C@H](Cc2ccc(O)c(O)c2)N1C(=O)c1ccccc1Cl
Influenza A virus [1]
  EC50: 1120 nM
[2]
  solubility: 1.62 µM (≈ 0.829 µg/mL)
Influenza A virus [3]
  Activity: Active
[4]
  half-life: 19.8 min
[5]
  microsomal CLint at 10 µM: 9.57 µL/min/mg
Influenza A virus [6]
  Activity: Dose-Dependent Effect
Influenza A virus [7]
  Activity: Active
[8]
  Tmax: 31.2 min
[9]
  AUC(0-t) at 24 h: 791 ng·h/mL
[10]
  bioavailability: 29.5%
Influenza A virus [11]
  Activity: Dose-Dependent Effect
Influenza A virus [12]
  Activity: inactive
[13]
  microsomal CLint at 10 µM: 134 µL/min/mg
[14]
  logD: 3.25
[15]
  AUC(0-t) at 24 h: 536 ng·h/mL
Influenza A virus [16]
  Activity: Active
[17]
  half-life: 64.2 min
[18]
  Cmax: 890 ng/mL
Erythrocyte
  inhibition: inactive
[19]
  AUC(0-t) at 24 h: 164 ng·h/mL
Influenza A virus [20]
  Activity: Active
Influenza A virus [21]
  Activity: Active
[22]
  solubility: 75.3 µM (≈ 38.6 µg/mL)
[23]
  Cmax: 1590 ng/mL
Influenza A virus [24]
  Activity: inactive
In vitro
  selectivity ratio: 113
[25]
  CC50 at 48 h: 99500 nM
[26]
  Cmax: 92.2 ng/mL
Influenza A virus [27]
  EC50: 430 nM
Influenza A virus [28]
  Activity: 60%
Influenza A virus [29]
  Activity: inactive
Influenza A virus [30]
  Activity: inactive
Influenza A virus [31]
  Activity: Active
[32]
  remaining at 2 h: 89.8%
Influenza A virus [33]
  Activity: Active
[34]
  remaining at 1 h: 95.6%
[35]
  half-life at 10 µM: 103 min
[36]
  remaining at 0.5 h: 100%
[37]
  half-life at 10 µM: 9.2 min
[38]
  remaining at 1.5 h: 91.5%
[39]
  half-life: 49.2 min
Influenza A virus [40]
  Activity: Dose-Dependent Effect
[41]
  Tmax: 27 min
[42]
  clearance: 53.8 mL/min/kg
[43]
  bioavailability: 6.13%
[44]
  solubility: 78.2 µM (≈ 40 µg/mL)
Influenza A virus [45]
  EC50: 760 nM

Reference: ChEMBL document CHEMBL5316264, “Identification of N- and C-3-Modified Laudanosoline Derivatives as Novel Influenza PAN Endonuclease Inhibitors” (J Med Chem, 2023)
